Assay: pH screen stability of prednisolone acetate oral suspension (HPLC)
Type: physicochemical
Conditions: pH range of 5.0 to 6.2
Description: NaOH was added to the portions to give various pH values (Batch A-E) and packaged in 4 ounce amber PETG bottles. The samples were left at the environmentally stressed conditions of 40° centigrade or 50° centigrade for one month. HPLC methods were used to measure the percent of prednisolone acetate retained in the bottle.

- Stability as a function of pH: more stable at the lower pH values
Compound: CC(=O)OCC(=O)[C@@]1(O)CC[C@H]2[C@@H]3CCC4=CC(=O)C=C[C@]4(C)[C@H]3[C@@H](O)C[C@@]21C [Prednisolone acetate, prednisolone acetate]
